Results from US6685617B1, “Inhibitors of α4β1 mediated cell adhesion” (Pharmacia & Upjohn Company, priority 1998, dated 2004).
Counter-ions that a name gives are not always drawn.

Columns and labels:
[1] = target: T1, α4β1 integrin (Jurkat T-cell adhesion to IL-1 stimulated endothelial cell monolayers) (Homo sapiens, UniProt P05556+P13612); assay: Jurkat-endothelial cell adhesion assay (Jurkat EC); format: cell-based; details: Jurkat cells on IL-1 stimulated human umbilical vein endothelial cells; read-out: JK/EC (Jurkat EC Assay IC50 value range)
T1 construct: a T-cell line, Jurkat, known to express the α4β1 integrin; host or cells: Jurkat T-cell line
T1 sequence (P13612 34-1032): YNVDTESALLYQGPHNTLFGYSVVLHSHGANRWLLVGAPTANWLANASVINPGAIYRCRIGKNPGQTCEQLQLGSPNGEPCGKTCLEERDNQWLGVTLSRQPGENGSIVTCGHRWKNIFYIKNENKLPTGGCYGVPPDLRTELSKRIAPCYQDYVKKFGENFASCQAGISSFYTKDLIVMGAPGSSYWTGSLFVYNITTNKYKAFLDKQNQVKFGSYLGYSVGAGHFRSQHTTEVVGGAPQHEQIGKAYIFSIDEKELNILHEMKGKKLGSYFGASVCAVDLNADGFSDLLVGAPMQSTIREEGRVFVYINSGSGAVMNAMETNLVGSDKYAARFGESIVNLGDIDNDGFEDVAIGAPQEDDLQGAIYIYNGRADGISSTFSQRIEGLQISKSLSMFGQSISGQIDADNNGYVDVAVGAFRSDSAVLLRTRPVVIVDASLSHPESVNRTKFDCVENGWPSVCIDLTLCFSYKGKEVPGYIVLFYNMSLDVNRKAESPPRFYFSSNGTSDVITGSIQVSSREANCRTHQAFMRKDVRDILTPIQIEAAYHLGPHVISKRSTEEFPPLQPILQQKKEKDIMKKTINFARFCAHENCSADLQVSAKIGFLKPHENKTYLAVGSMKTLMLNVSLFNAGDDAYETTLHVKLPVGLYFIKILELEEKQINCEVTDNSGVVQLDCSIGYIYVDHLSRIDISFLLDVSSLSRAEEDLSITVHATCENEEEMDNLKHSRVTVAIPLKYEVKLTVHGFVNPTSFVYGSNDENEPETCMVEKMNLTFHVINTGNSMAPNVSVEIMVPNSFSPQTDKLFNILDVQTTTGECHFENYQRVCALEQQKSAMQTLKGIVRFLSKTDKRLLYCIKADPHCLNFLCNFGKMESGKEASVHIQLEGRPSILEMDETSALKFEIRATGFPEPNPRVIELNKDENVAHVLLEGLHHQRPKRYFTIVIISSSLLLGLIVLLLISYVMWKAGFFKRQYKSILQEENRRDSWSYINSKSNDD
T1 sequence (P05556 21-798): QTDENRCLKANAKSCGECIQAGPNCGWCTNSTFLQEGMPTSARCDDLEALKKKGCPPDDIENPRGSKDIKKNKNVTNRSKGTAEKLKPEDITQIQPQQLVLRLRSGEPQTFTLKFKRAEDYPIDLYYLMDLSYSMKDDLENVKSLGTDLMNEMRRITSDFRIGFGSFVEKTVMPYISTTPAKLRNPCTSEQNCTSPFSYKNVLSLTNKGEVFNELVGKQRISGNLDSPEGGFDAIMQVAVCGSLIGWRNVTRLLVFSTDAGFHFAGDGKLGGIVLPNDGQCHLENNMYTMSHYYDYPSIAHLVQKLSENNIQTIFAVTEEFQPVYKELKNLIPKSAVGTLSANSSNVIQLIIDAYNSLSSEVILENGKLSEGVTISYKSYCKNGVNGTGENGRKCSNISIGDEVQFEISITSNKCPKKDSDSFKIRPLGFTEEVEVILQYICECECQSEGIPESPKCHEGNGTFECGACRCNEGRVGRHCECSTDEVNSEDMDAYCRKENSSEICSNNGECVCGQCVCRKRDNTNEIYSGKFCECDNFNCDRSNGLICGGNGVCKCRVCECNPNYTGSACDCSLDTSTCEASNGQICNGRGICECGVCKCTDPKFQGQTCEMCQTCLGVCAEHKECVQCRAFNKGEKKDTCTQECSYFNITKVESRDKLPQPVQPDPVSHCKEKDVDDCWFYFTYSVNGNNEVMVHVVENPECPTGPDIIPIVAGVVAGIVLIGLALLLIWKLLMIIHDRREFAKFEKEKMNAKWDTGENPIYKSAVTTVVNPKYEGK
Protocol: Jurkat-endothelial Cell Adhesion Assay:
The following assay established the activity of the present compounds in inhibiting β1-mediated cell adhesion in a representative in vitro system. This assay measures the adhesive interactions of a T-cell line, Jurkat, known to express the α4β1 integrin, to endothelial monolayers in the presence of test compounds. The test compounds were added in increasing concentrations to T-cells and then the T-cell compound mixture was added to IL-1 stimulated endothelial cell monolayers. The plates were incubated, washed and the percentage of attached cells was quantitated.
Human umbilical vein endothelial cells were purchased from Clonetics (San Diego, Calif.) at passage number 2. The cells were grown on 0.5% porcine skin gelatin pre-coated flasks (Sigma, St. Louis Mo.) in EGM-UV media (Clonetics, San Diego, Calif.) supplemented with 10% fetal bovine serum. Cells are refed every 2-3 days reaching confluence by day 4 to 6. […] The endothelial cells are not used following passage 6.
The T-cell line Jurkat was obtained from American Type Tissue Culture Collection (Rockville, Md.) and the cells were cultured in RPMI containing 10% fetal calf serum. The cells were washed twice in Hank's Balanced Salt Solution (HBSS) and resuspended in Dulbecco's Minimal Eagle's Media (DMEM) containing 2.5 mg/ml Human Serum Albumin (HSA). Jurkat cells (1×10^6 cells/ml) were stained with 10 ng/ml BCECF-AM (Molecular Probes, Eugene, Oreg.)) in HBSS without phenol red. The cells were loaded with BCECF for 60 minutes in the dark at 370C, washed 2 times, and resuspended in DMEM-HSA solution.
Confluent endothelial monolayers, grown in 96-well tissue culture plates, were stimulated for 4 hr. at 37° C. with 0.1 ng/ml (˜50 U/ml) recombinant IL-1 (Amgen, Thousand Oaks, Calif.). Following this incubation, the monolayers were washed twice with HBSS and 0.1 ml of DMEM−HSA solution was added. Jurkat cells (5×10^5 cells) were combined with the appropriate concentration of the test compound and 0.1 ml of the Jurkat cell-compound mixture was added to the endothelial cell monolayers. Generally, 100, 20, 5 and 1.25 μM compound concentrations were tested. […] The plates were placed on ice for 5 minutes to allow for Jurkat cell settling and the plates were incubated at 37° C. for 20 minutes. Following this incubation, the monolayers were washed twice with PBS containing 1 mM calcium chloride and 1 mM magnesium chloride and the plates were read using a Millipore Cytofluor 2300 (Marlboro, Mass.). Fluorescence in each well was measured as Arbitrary Fluorescence Units and percent adhesion in the absence of compound was adjusted to 100% and the % adhesion in the presence of compound was calculated. Monolayers were also fixed in 3% paraformaldehyde and evaluated microscopically to verify the adhesion. This procedure is a modification of a previously published method (Cardarelli et al., J. Biol. Chem. 269:18668-18673 (1994)).

[2] = target: T2, α4β1 integrin (Jurkat cell adhesion to immobilized CS-1 derived peptide CLHPGEILDVPST) (Homo sapiens, UniProt P05556+P13612); assay: Jurkat-CS-1 assay; format: cell-based; details: Jurkat cells on CS-1 peptide coated plates; read-out: JK/CS-1 (Jurkat CS-1 Assay IC50 value range)
T2 construct: 100 μl of Jurkat cells (2.5×10^6 cells/ml) in DMEM plus BSA; host or cells: Jurkat T-cell line
T2 sequence (P13612 34-1032): as the sequence (P13612 34-1032) above
T2 sequence (P05556 21-798): as the sequence (P05556 21-798) above
Protocol: The CS-1 derived peptide, CLHPGEILDVPST, and the scrambled control peptide, CLHGPIELVSDPT, were synthesized on a Beckman 990 synthesizer using t-Boc methodology. The peptides were immobilized onto microtiter plates using the heterobifunctional crosslinker 3-(2-pyridyldithio)propionic acid N-hydroxysuccinimide ester (SPDP) as reported by Pierschbacher et al., Proc. Natl. Acad. USA, 80:1224-1227 (1983). Microtiter plates were coated with 20 μg/ml HSA for 2 hr. at room temperature, washed once with PBS and derivatized with 10 μg/ml SPDP for 1 hr. After washing, 100 μl of a 100 μg/ml cysteine containing peptide solution which had been recently dissolved was added to the wells and allowed to crosslink to the plates overnight at 4° C. Unbound peptide was removed from plates by washing with PBS. To block non-reacted sites, the plates are coated with 100 μl of a 2.5 mg/ml BSA solution in PBS for 1 hr. at 37° C. 100 μl of Jurkat cells (2.5×10^6 cells/ml) in DMEM plus BSA (2.5 mg/ml) was mixed with an appropriate concentration of the compound to be tested and the mixture was added to peptide coated dishes and incubated for 1 hr. at 37° C. Generally 100, 20, 5 and 1.25 μM concentrations of the compound were tested.
Following this incubation the plates were washed once with PBS and the attached cells were fixed with 3% paraformaldehyde in PBS and stained with 0.5% toluidine blue in 3.7% formaldehyde. The cells were stained overnight at room temperature and the optical density at 590 nm of toluidine blue stained cells was determined using a vertical pathway spectrophotometer to quantitate attachment (VMAX Kinetic Microplate Reader, Molecular Devices, Menlo Park, Calif.). This procedure is a modification of a previously published method (Cardarelli et al, J. Biol. Chem., 269:18668-18673 (1994) and Cardarelli et al, Proc. Natl. Acad. Sci. USA, 83:2647-2651 (1986)).

SMILES | IC50 [1] [µM] | IC50 [2] [µM]
COC(=O)[C@H](Cc1ccc(NC(=O)c2c(Cl)cccc2Cl)cc1)NC(=O)[C@@H]1CSCN1C(C)=O [Example 69, N-[[(4R)-3-Acetyl-4-thiazolidinyl]carbonyl]-4-[(2,6-dichlorobenzoyl)amino]-L-phenylalanine Methyl Ester] | ≥ 1 | ≥ 0.75
C[C@@H](c1ccccc1)N1[C@H](C(=O)O)C[C@H]1C(=O)N[C@@H](Cc1ccc(NC(=O)c2c(Cl)cccc2Cl)cc1)C(=O)O [Example 129, [2S-[1(R*),2α,4β(R*)]]-4-[[[1-Carboxy-2-[4-[(2,6-dichlorobenzoyl)amino]phenyl]ethyl]-amino]carbonyl]-1-(1-phenylethyl)-2-azetidinecarboxylic Acid Dilithium Salt] | 0.25 to 1 | 0.05 to 0.75
O=C(Nc1ccc(C[C@H](NC(=O)[C@H]2CSCN2C(=O)OC23CC4CC(CC(C4)C2)C3)C(=O)O)cc1)c1c(Cl)cccc1Cl (relative stereo) [Example 23, [S-(R*,R*)]-4-[[[1-Carboxy-2-[4-[(2,6-dichlorobenzoyl)amino]phenyl]ethyl]amino]carbonyl]-3-thiazolidinecarboxylic Acid 3-(Tricyclo[3.3.1.1^3,7]dec-1-yl)ester] | ≤ 0.25 | ≤ 0.05
CC(C)(C)OC(=O)N1CC[C@H]1C(=O)N[C@@H](Cc1ccc(NC(=O)c2c(Cl)cccc2Cl)cc1)C(=O)O [Example 143, [2S-(R*,R*)]-2-[[[1-Carboxy-2-[4-[(2,6-dichlorobenzoyl)amino]phenyl]ethyl]amino]-carbonyl]-1-azetidinecarboxylic Acid 1-(1,1-Dimethylethyl)ester] | ≥ 1 | 0.05 to 0.75
O=C(O)/C=C/C(=O)N1CCCC[C@H]1C(=O)N[C@@H](Cc1ccc(NC(=O)c2c(Cl)cccc2Cl)cc1)C(=O)O [Example 176] | ≥ 1 | 0.05 to 0.75
CCS(=O)(=O)N1CSC[C@@H]1C(=O)N[C@@H](Cc1ccc(NC(=O)c2c(Cl)cccc2Cl)cc1)C(=O)O [Example 43] | ≤ 0.25 | ≤ 0.05
CCOC(=O)N1[C@@H](C(=O)N[C@@H](Cc2ccc(OCc3c(Cl)cccc3Cl)cc2)C(=O)O)CSC12CCCC2 (relative stereo) [Example 161, [S-(R*,R*)]-3-[[[1Carboxy-2-[4-[(2,6-dichlorophenyl)methoxy]phenylethyl]amino]carbonyl]-1-thia-4-azapiro[4.4]nonane-4-carboxylic Acid 4-Ethyl Ester] | ≥ 1 | ≥ 0.75
CC(=O)N1CSC[C@H]1C(=O)N[C@@H](Cc1ccc(NC(=O)c2c(Cl)cccc2Cl)cc1)C(=O)O [Example 70, N-[[(4R)-3-Acetyl-4-thiazolidinyl]carbonyl]-4[(2,6-dichlorobenzoyl)amino]-L-phenylalanine] | 0.25 to 1 | ≤ 0.05
CCOC(=O)N1[C@@H](C(=O)N[C@@H](Cc2ccc(NC(=O)c3c(Cl)cccc3Cl)cc2)C(=O)O)CSC12CCCC2 (relative stereo) [Example 78, [S-(R*,R*)]-3-[[[1-Carboxy-2-[4-[(2,6-dichlorobenzoyl)amino]phenyl]ethyl]amino]carbonyl]-1-thia-4-azaspiro[4.4]nonane-4-carboxylic Acid 4-Ethyl Ester] | ≥ 1 | 0.05 to 0.75
O=C(Nc1ccc(C[C@H](NC(=O)[C@@H]2CCN2)C(=O)O)cc1)c1c(Cl)cccc1Cl [Example 144, N-[[(2S)-2-Azetidinyl]carbonyl]-4-[(2,6-dichlorobenzoyl)amino]-L-phenylalanine Trifluoroacetic acid Salt] | ≥ 1 | 0.05 to 0.75
O=C(O)c1ccccc1C(=O)N1CCCC(C(=O)N[C@@H](Cc2ccc(NC(=O)c3c(Cl)cccc3Cl)cc2)C(=O)O)C1 (stereo partly drawn) [Example 204] | 0.25 to 1 | 0.05 to 0.75
O=C(O)CCC(=O)N1CCSCC1C(=O)N[C@@H](Cc1ccc(OCc2c(Cl)cccc2Cl)cc1)C(=O)O (stereo in doubt) [Example 105, [R-(R*,S*)]-3-[[[1-Carboxy-2-[4-[(2,6-dichlorophenyl)methoxy]phenyl]ethyl]amino]carbonyl]-γ-oxo-4-thiomorpholinebutanoic Acid] | ≥ 1 | 0.05 to 0.75
COC(=O)[C@H](Cc1ccc(NC(=O)c2c(Cl)cccc2Cl)cc1)NC(=O)[C@H]1CSCN1C(=O)OC12CC3CC(CC(C3)C1)C2 (relative stereo) [Example 22, [S-(R*,R*)]-4-[[[1-[[4-[(2,6-Dichlorobenzoyl)amino]phenyl]methyl]-2-methoxy-2-oxoethyl]amino]carbonyl]-3-thiazolidinecarboxylic Acid 3-(Tricyclo[3.3.1.1^3,7]dec-1-yl)ester] | ≥ 1 | ≥ 0.75
CC(C)(C)OC(=O)N1CCSC[C@H]1C(=O)N[C@@H](Cc1ccc(NC(=O)c2c(Cl)cccc2Cl)cc1)C(=O)O (relative stereo) [Example 100, [R-(R*,S*)]-3-[[[1-Carboxy-2-[4-[(2,6-dichlorobenzoyl)amino]phenyl]ethyl]amino]carbonyl]-4-thiomorpholinecarboxylic Acid 4-(1,1-Dimethylethyl)ester] | 0.25 to 1 | 0.05 to 0.75
O=C(Nc1ccc(C[C@H](NC(=O)[C@H]2CSCN2)C(=O)O)cc1)c1c(Cl)cccc1Cl [Example 11, 4-[(2,6-Dichlorobenzoyl)amino]-N-[[(4S)-4-thiazolidinyl]carbonyl]-L-phenylalanine Monohydrochloride Salt] | ≥ 1 | 0.05 to 0.75
O=C(Nc1ccc(C[C@H](NC(=O)[C@H]2CSCN2C(=O)c2cccnc2)C(=O)O)cc1)c1c(Cl)cccc1Cl [Example 265] | ≤ 0.25 | ≤ 0.05
O=C(CCC1(C(=O)O)CCC(=O)N1)N[C@@H](Cc1ccc(OCc2c(Cl)cccc2Cl)cc1)C(=O)O (stereo partly drawn) [Example 117, 2-[3-[[(1S)-1-Carboxy-2-[4-[(2,6-dichlorophenyl)methoxy]phenyl]ethyl]amino]-3-oxo-propyl]-5-oxoproline] | ≥ 1 | 0.05 to 0.75
COC(=O)[C@H](Cc1ccc(NC(=O)c2c(Cl)cccc2Cl)cc1)NC(=O)[C@@H]1CSCN1C(=O)OC(C)(C)C (stereo in doubt) [Example 13, [R-(R*,S*)]-4-[[[1-[[4-[(2,6-Dichlorobenzoyl)amino]phenyl]methyl]-2-methoxy-2-oxoethyl]amino]carbonyl]-3-thiazolidinecarboxylic Acid 3-(1,1-Dimethylethyl)ester] | ≥ 1 | ≥ 0.75
